Assay results published in patent US10854312B2, “Selective peptide antagonists” (BIONIZ, LLC, priority 2013, dated 2020).
Entries after “also recorded” stand apart in the source; their conditions may differ. No end group written: not given here.

Tests used:
Type in all cases: cell-based
[1] = molecular target: mouse stem cell factor (Mus musculus, UniProt P20826); assay: PT-18β proliferation assay (3H-thymidine), non-γc cytokine SCF; conditions: 1 nM mouse stem cell factor, 15 μM BNZ132-1
[2] = system: human IL-2; assay: CTLL-2 proliferation assay (WST-1), IL-2; conditions: murine CTLL-2 cells, 1 nM human IL-2, BNZ132-1 50 and 500 nM, WST-1 OD450
Procedure: FIG. 6A-FIG. 6E presents inhibitory spectrum of BNZ132-1 over γc- and non-γc-cytokines. […] Neutralizing antibodies against each cytokine (R & D systems, 5 μg ml^−1) were included as controls. After 20 h, the cells were pulsed with WST-1 (Clontech) and OD450 of each well was measured after 6 h. A 19-mer scrambled peptide was used as a negative control at 5 μM. The experiments were conducted in triplicate (applies to all experiments in FIG. 6A-FIG. 6E). The result represents one of at least three independent experiments (applies to all experiments in FIG. 6A-FIG. 6E). […] In PT-18 proliferation assay, PT-18β or PT-18h21Rα cells were withdrawn of mouse IL-3 for 12 h before the experiment. Cells were then incubated with 1 nM of mouse IL-4, mouse IL-9, or mouse IL-21 in the presence or absence of the indicated doses (μM) of BNZ132-1. Neutralizing antibodies to each cytokine (5 μg ml^−1, except for anti-mouse IL-21 polyclonal antibody which was used at 15 μg ml−1) and a scrambled control peptide (5 μM) were included as negative controls. WST-1 assay was conducted as described above. […] In PT-18 h21Rα survival assay, PT-18h21Rα cells are described in the text. […] Both parental and hIL-21Rα positive PT-18 cells were washed and incubated without IL-3 for 12 h before the assay. […] The Y-axis represents the cpm (count per minute) values measured by a β-counter. […]

[3] = system: human IL-15; assay: NK92 cell proliferation assay (WST-1), IL-15; conditions: 24 h
Procedure: Human peripheral blood mononuclear cells were purified by the Ficoll-paque gradient centrifugation (GE-Healthcare) and stimulated by PHA (5 μg ml^−1, Sigma) for 48 h, then expanded with IL-2 (0.5 nM, Peprotech) for 48h, and then depleted of non-T cells by the Pan-T cell negative enrichment Ab cocktails (Miltenyi). The purified T cells were then fasted of IL-2 overnight prior to the proliferation assay by the tetrazolium dye method. Four hundred thousand cells (in 200 μl culture) were incubated with the cytokines and BNZ132-1 at the indicated concentrations for 24 h, and 20 μl WST1 reagent (Clontech) was added to each well. After 12 h incubation, OD450 was measured. The assay was performed in triplicate. […] NK 92 cells were cultured in human IL-2. Cells were washed to withdraw IL-2 for overnight and two hundred thousand cells (in 200 μl volume) were incubated with the indicated concentrations of the cytokine and BNZ132-1 for 24 h before 20 μl WST-1 reagent (Clontech) was added to each well to measure proliferative response. Absorbance at 450 nm was read at 6 h after the addition of the WST-1 dye. The assay was performed in triplicate. The assay was performed in triplicate and the figure represents a typical result out of 5 different HAM-TSP patients.
FIG. 8B, and FIG. 8C show the results of NK92 cell proliferation assay. NK92 cells responded to IL-2 and IL-15. […]

mouse stem cell factor, sequence (P20826 26-273): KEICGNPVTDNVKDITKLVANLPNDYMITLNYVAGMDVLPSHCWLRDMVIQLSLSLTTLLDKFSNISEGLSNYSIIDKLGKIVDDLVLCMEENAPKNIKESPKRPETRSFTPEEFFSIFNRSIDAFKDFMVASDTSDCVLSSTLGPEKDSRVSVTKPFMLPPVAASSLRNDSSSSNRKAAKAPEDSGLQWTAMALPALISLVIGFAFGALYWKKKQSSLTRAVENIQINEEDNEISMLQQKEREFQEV

IKEFLQRFIHIVQSIINTS [BNZ132-1]
inhibition of SCF-induced proliferation of PT-18β cells [1]: did not inhibit; also recorded: no inhibition; also recorded: no inhibition of non-γc cytokines | inhibition of IL-2-induced proliferation of CTLL-2 cells [2]: inhibited IL-2 and IL-15 with an equal efficacy; also recorded: efficiently inhibits; also recorded: inhibition of IL-2 and IL-15 | inhibition of IL-15-induced proliferation of NK92 cells [3]: dose-dependent manner; also recorded: dose-dependent inhibition
